Laboratory results from ChEMBL document CHEMBL1201862, “PubChem BioAssay data set” (2004).
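Values below derive from 48-hour exposures of cells grown in 96-well plates, with endpoints linearly interpolated between the two concentrations bracketing the appropriate inhibition level. GI50 = concentration required for 50% inhibition of growth.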 Calls of active or inactive are those of the source. Cut-off read from the data, not from the text of the source: active = GI50 up to about 1.1 µM and inactive = higher.

Legend:
Test in all cases: inhibition of tumour cell growth, NCI panel, 48 h
MCF7 = test system: MCF7
HOP-92 = test system: HOP-92
ACHN = test system: ACHN
OVCAR-8 = test system: OVCAR-8
RPMI-8226 = test system: RPMI-8226
SN12C = test system: SN12C
SNB-19 = test system: SNB-19
CAKI-1 = test system: CAKI-1
SF-295 = test system: SF-295
EKVX = test system: EKVX
OVCAR-4 = test system: OVCAR-4
OVCAR-3 = test system: OVCAR-3
HCC 2998 = test system: HCC 2998
RXF 393 = test system: RXF 393
A549 = test system: A549
HOP-62 = test system: HOP-62
SW-620 = test system: SW-620
U-251 = test system: U-251
A498 = test system: A498

| Compound | GI50 (MCF7) | GI50 (HOP-92) | GI50 (ACHN) | GI50 (OVCAR-8) | GI50 (RPMI-8226) | GI50 (SN12C) | GI50 (SNB-19) | GI50 (CAKI-1) | GI50 (SF-295) | GI50 (EKVX) | GI50 (OVCAR-4) | GI50 (OVCAR-3) | GI50 (HCC 2998) | GI50 (RXF 393) | GI50 (A549) | GI50 (HOP-62) | GI50 (SW-620) | GI50 (U-251) | GI50 (A498) |
| --- | --- | --- | --- | --- | --- | --- | --- | --- | --- | --- | --- | --- | --- | --- | --- | --- | --- | --- | --- |
| Cc1nn(C(=O)c2ccncc2)c2c1C(c1ccc(Cl)cc1)SC(=N)N2 (stereo unspecified) | > 10 µM (inactive) | > 10 µM (inactive) | > 10 µM (inactive) | > 10 µM (inactive) | > 10 µM (inactive) | > 10 µM (inactive) | > 10 µM (inactive) | > 10 µM (inactive) | > 10 µM (inactive) | > 10 µM (inactive) | > 10 µM (inactive) | > 10 µM (inactive) | > 10 µM (inactive) | > 10 µM (inactive) | > 10 µM (inactive) | > 10 µM (inactive) | > 10 µM (inactive) | – | – |
| CCOC(=O)/C=C/CCC(C)(C)COC(C)=O | > 10 µM (inactive) | > 10 µM (inactive) | > 10 µM (inactive) | > 10 µM (inactive) | > 10 µM (inactive) | > 10 µM (inactive) | > 10 µM (inactive) | > 10 µM (inactive) | > 10 µM (inactive) | > 10 µM (inactive) | > 10 µM (inactive) | > 10 µM (inactive) | > 10 µM (inactive) | > 10 µM (inactive) | > 10 µM (inactive) | > 10 µM (inactive) | > 10 µM (inactive) | > 10 µM (inactive) | – |
| Cc1c(NC(=O)CSC(=S)N2CCN(Cc3ccccc3)CC2)c(=O)n(-c2ccccc2)n1C | > 100 µM (inactive) | – | > 100 µM (inactive) | > 100 µM (inactive) | > 100 µM (inactive) | > 100 µM (inactive) | > 100 µM (inactive) | > 100 µM (inactive) | > 100 µM (inactive) | > 100 µM (inactive) | > 100 µM (inactive) | > 100 µM (inactive) | 28.4 µM (inactive) | > 100 µM (inactive) | > 100 µM (inactive) | > 100 µM (inactive) | > 100 µM (inactive) | > 100 µM (inactive) | – |
| O=C1Cc2c([nH]c3ccc(Br)cc23)-c2ccccc2N1 [KENPAULLONE] | – | > 100 µM (inactive) | > 100 µM (inactive) | > 100 µM (inactive) | > 20.5 µM (inactive) | > 100 µM (inactive) | > 78.5 µM (inactive) | – | > 100 µM (inactive) | > 100 µM (inactive) | > 100 µM (inactive) | 3.95 µM (inactive) | > 100 µM (inactive) | 5.11 µM (inactive) | > 90.2 µM (inactive) | 65.8 µM (inactive) | – | > 51.5 µM (inactive) | > 100 µM (inactive) |
| COc1cccc(-c2cc(O)c3cc(N4CCOCC4)ccc3n2)c1 | 0.0484 µM (active) | 0.0376 µM (active) | 0.0524 µM (active) | 0.0375 µM (active) | 0.361 µM (active) | 0.0678 µM (active) | 0.0543 µM (active) | 0.0426 µM (active) | 0.041 µM (active) | 0.363 µM (active) | 6.76 µM (inactive) | 0.0201 µM (active) | 0.0656 µM (active) | – | 0.113 µM (active) | 0.0586 µM (active) | 0.0324 µM (active) | 0.037 µM (active) | – |
| CN(C)c1cccc2c(S(=O)(=O)NCCCNCCN)cccc12 | – | 34.4 µM (inactive) | > 100 µM (inactive) | – | – | 78 µM (inactive) | > 100 µM (inactive) | > 100 µM (inactive) | 55.2 µM (inactive) | > 100 µM (inactive) | 55.2 µM (inactive) | 62.5 µM (inactive) | 24 µM (inactive) | 36.8 µM (inactive) | 66.5 µM (inactive) | 67.8 µM (inactive) | 55.2 µM (inactive) | 29 µM (inactive) | 29.6 µM (inactive) |
